Experiment [1] concerns the target T1, Muscarinic acetylcholine receptor M1 (Homo sapiens, UniProt P11229).
T1 sequence (P11229 whole entry): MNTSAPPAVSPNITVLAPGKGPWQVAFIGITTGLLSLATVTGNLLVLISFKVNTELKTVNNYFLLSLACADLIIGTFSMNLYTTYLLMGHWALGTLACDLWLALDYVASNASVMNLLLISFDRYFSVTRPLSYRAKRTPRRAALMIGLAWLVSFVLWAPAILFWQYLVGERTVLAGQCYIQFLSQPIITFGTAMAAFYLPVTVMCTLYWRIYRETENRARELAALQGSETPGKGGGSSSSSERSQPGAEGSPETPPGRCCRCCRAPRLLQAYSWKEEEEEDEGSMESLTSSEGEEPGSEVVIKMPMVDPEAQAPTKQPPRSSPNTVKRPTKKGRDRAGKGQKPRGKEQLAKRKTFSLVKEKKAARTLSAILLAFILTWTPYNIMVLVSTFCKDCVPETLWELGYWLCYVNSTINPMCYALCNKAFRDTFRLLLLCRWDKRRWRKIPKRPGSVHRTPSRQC
Description: Agonist activity at human muscarinic M1 receptor by calcium mobilization assay. In kind it is functional.

The target in experiment [2] is T2, Muscarinic acetylcholine receptor M1 (Homo sapiens) (UniProt P11229).
T2 sequence (whole entry): T1 sequence (P11229 whole entry)
The experiment in a line: Agonist activity at human muscarinic M1 receptor at 30 uM by calcium mobilization assay relative to acetylcholine. The experiment is classed as functional. For orientation: Calcium flux is commonly read through the fluorescence of an indicator in the cells.

For experiment [3], the target named is T3, Muscarinic acetylcholine receptor M3 (Homo sapiens, UniProt P20309). The experiment in a line: Agonist activity at human muscarinic M3 receptor by calcium mobilization assay. The experiment is classed as functional.
Target sequence in this assay (P20309 whole entry): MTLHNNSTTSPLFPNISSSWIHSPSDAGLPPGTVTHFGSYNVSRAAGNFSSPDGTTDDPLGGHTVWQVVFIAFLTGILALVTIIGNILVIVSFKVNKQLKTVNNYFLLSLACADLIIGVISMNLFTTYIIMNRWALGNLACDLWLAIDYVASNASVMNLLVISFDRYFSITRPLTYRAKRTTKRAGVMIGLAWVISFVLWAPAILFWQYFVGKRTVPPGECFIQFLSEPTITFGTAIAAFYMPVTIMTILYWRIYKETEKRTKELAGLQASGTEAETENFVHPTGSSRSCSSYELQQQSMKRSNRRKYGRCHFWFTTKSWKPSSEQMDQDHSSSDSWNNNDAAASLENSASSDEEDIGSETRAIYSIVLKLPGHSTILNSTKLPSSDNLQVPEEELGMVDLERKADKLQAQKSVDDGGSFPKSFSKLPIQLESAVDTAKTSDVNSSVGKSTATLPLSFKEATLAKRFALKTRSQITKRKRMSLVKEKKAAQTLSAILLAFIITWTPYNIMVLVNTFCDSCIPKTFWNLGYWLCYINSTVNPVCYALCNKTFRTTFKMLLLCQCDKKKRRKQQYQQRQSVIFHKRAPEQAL
Experiment [4] has as its target T4, Muscarinic acetylcholine receptor M2 (Homo sapiens, UniProt P08172).
T4 sequence (P08172 whole entry): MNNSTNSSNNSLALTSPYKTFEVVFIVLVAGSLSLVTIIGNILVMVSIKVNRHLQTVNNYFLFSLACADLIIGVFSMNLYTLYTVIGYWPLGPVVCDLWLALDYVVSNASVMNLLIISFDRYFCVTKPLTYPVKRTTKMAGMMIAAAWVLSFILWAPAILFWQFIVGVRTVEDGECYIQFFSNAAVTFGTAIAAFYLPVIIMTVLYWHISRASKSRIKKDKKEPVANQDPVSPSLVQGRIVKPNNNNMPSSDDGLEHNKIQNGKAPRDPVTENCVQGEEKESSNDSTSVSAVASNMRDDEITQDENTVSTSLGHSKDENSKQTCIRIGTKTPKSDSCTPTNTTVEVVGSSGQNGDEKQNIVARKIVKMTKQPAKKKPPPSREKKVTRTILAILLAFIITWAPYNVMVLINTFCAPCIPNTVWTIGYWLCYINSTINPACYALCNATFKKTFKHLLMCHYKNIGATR
The experiment in a line: Antagonist activity at human muscarinic M2 receptor by calcium mobilization assay. The experiment is classed as functional.

The target of experiment [5] is T5, Muscarinic acetylcholine receptor M2 (Homo sapiens) (UniProt P08172).
T5 sequence (whole entry): T4 sequence (P08172 whole entry)
The experiment in a line: Antagonist activity at human muscarinic M2 receptor assessed as remaining activity measured as percentage of maximum response generated from 80% of saturating dose of ACh at 30 uM by calcium mobilization assay. In kind it is functional.

In experiment [6] the target is T3, Muscarinic acetylcholine receptor M3. Description: Agonist activity at human muscarinic M3 receptor at 30 uM by calcium mobilization assay relative to acetylcholine. The experiment is classed as functional.
Target sequence in this assay (P20309 whole entry, looked up): as the sequence (P20309 whole entry) above
Experiment [7] has as its target T6, Muscarinic acetylcholine receptor M4 (Homo sapiens, UniProt P08173).
T6 sequence (P08173 whole entry): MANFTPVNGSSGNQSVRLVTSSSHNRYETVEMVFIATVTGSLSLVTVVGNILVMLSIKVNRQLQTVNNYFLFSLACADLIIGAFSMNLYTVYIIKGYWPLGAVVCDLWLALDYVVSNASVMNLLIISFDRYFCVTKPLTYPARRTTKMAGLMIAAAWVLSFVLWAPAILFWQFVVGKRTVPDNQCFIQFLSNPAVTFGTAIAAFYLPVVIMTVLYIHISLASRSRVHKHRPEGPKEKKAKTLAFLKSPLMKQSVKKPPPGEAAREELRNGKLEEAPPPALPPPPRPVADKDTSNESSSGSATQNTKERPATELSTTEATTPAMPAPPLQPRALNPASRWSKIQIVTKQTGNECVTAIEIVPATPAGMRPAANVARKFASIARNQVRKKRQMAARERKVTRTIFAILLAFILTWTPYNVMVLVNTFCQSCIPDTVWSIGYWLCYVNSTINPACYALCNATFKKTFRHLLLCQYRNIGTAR
The experiment in a line: Antagonist activity at human muscarinic M4 receptor by calcium mobilization assay. In kind it is functional.

The target in experiment [8] is T7, Muscarinic acetylcholine receptor M4 (Homo sapiens) (UniProt P08173).
T7 sequence (whole entry): T6 sequence (P08173 whole entry)
The experiment in a line: Antagonist activity at human muscarinic M4 receptor assessed as remaining activity measured as percentage of maximum response generated from 80% of saturating dose of ACh at 30 uM by calcium mobilization assay. In kind it is functional.

The target of experiment [9] is T8, Muscarinic acetylcholine receptor M5 (Homo sapiens, UniProt P08912).
T8 sequence (P08912 whole entry): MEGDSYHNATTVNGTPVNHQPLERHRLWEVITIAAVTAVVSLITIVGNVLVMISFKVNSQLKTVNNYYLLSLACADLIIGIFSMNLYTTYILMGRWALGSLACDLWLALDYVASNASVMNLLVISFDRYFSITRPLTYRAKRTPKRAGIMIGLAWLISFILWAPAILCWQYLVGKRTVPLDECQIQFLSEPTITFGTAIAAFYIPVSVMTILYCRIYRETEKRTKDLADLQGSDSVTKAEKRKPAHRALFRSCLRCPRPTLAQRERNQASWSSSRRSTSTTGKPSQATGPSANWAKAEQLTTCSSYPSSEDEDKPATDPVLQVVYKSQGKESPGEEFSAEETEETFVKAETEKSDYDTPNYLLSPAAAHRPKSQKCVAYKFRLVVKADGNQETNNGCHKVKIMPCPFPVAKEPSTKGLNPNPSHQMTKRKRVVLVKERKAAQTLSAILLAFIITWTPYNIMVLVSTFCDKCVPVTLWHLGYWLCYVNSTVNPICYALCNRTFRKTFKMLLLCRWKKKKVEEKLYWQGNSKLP
Description: Agonist activity at human muscarinic M5 receptor by calcium mobilization assay. The experiment is classed as functional.

For experiment [10], the target named is T9, Muscarinic acetylcholine receptor M5 (Homo sapiens) (UniProt P08912).
T9 sequence (whole entry): T8 sequence (P08912 whole entry)
The experiment in a line: Agonist activity at human muscarinic M5 receptor at 30 uM by calcium mobilization assay relative to acetylcholine. In kind it is functional.

The target in experiment [11] is T1, Muscarinic acetylcholine receptor M1. Description: Agonist activity at human muscarinic M1 receptor. To be noted: read-out: EC50. The experiment is classed as functional.
Experiment [12] deals with T2, Muscarinic acetylcholine receptor M1 (Homo sapiens). The experiment in a line: Agonist activity at human muscarinic M1 receptor at 30 uM relative to acetylcholine. In kind it is functional.
The target is the same in experiment [13]. The experiment in a line: Agonist activity at human muscarinic M1 receptor expressed in TREx293 cells assessed as increase of soluble APPalpha release at 2 uM. In kind it is functional, cell-based. To be noted: HEK293.
Experiment [14] deals with T4, Muscarinic acetylcholine receptor M2. Description: Agonist activity at human muscarinic M2 receptor by calcium mobilization assay. In kind it is functional.
Experiment [15] addresses T6, Muscarinic acetylcholine receptor M4. Description: Agonist activity at human muscarinic M4 receptor by calcium mobilization assay. The experiment is classed as functional.
The target in experiment [16] is T8, Muscarinic acetylcholine receptor M5. Description: Antagonist activity at human muscarinic M5 receptor by calcium mobilization assay. The experiment is classed as functional.
Experiment [17] has as its target T3, Muscarinic acetylcholine receptor M3. The experiment in a line: Antagonist activity at human muscarinic M3 receptor by calcium mobilization assay.
Target sequence in this assay (P20309 whole entry): as the sequence (P20309 whole entry) above
For experiment [18] the target is unchanged. The experiment in a line: Antagonist activity at human muscarinic M3 receptor assessed as remaining activity measured as percentage of maximum response generated from 80% of saturating dose of ACh at 30 uM by calcium mobilization assay. In kind it is functional.
Target sequence in this assay (P20309 whole entry, looked up): as the sequence (P20309 whole entry) above
Experiment [19] addresses T5, Muscarinic acetylcholine receptor M2 (Homo sapiens). Description: Agonist activity at human muscarinic M2 receptor at 30 uM by calcium mobilization assay relative to acetylcholine. The experiment is classed as functional.

The source made the active and inactive calls. The calls are words filed in the database; no cut-off is given here.

On to `CCCCC1CCN(CCCN2C(=O)COc3cc(F)ccc32)CC1`, for which the figures for the EC50 in experiment [1], in [3] (read-out: EC50) and in [9] (read-out: EC50) were 41 nM, 5900 nM and 1000 nM, respectively. The Activity in [2] came to 81%; in experiment [5], 30%; in experiment [6], 19%; in [8] it was 26%; in [10] it was 28%. The IC50 in experiment [4] (read-out: IC50) and in [7] (read-out: IC50) was above 10000 nM throughout.
For the compound `CCOC(=O)N1[C@@H]2CC[C@H]1C[C@H](NCCNC(=O)c1ccccc1)C2`, the EC50 (as a rule, the concentration giving half of the maximal effect) in experiment [11] is 970 nM; in experiment [14], “Not Active”; in experiment [3], “Not Active”; in [15] it was “Not Active”; in experiment [9], “Not Active”. The figures for the Activity in [12] and in experiment [2] were 49% and 57%, respectively. The result in experiment [13] was Active. The IC50 result in [4], in experiment [7] and in experiment [16] was “Not Active” each time.
`CCOC(=O)N1CCC(NCCNC(=O)c2ccccc2C)CC1`: the EC50 in experiment [11] was 1600 nM; in experiment [1] it was 2600 nM; in experiment [14] it was “Not Active”; in experiment [3], “Not Active”; in experiment [15], “Not Active”; in experiment [9], “Not Active”. The Activity in [12] was determined as 35%; in [2] it was 34%. The result in experiment [13] was Active. Also, the IC50 entry in [4], in experiment [7] and in [16] was “Not Active” each time.
As to `CCOC(=O)N1[C@@H]2CC[C@H]1C[C@@H](NCCNC(=O)c1ccccc1)C2`, the EC50 in experiment [11] stood at 110 nM. The Activity in experiment [12] stood at 34%; in experiment [2] it was 37%; in experiment [5] it was 15%; in experiment [18], 13%; in experiment [8], 2%. In addition, in experiment [13], the result was Active. The IC50 (as a rule, the concentration that gives 50% inhibition) in experiment [4] (read-out: IC50) was above 10000 nM; in experiment [17], above 10000 nM; in experiment [7] (read-out: IC50), 3100 nM; in experiment [16] (read-out: IC50), 4900 nM.
In the case of `CCOC(=O)N1C2CCC1CC(N1CCC[C@@H](NC(=O)c3ccccc3)C1)C2` (mixture of isomers), the EC50 in experiment [11] is 840 nM; in [1], 350 nM; in [14] (read-out: EC50) it was above 10000 nM; in [3], “Not Active”; in experiment [15], “Not Active”; in experiment [9] (read-out: EC50), above 10000 nM. Moreover, the Activity in experiment [12] amounted to 75%; in experiment [2] it was 65%; in experiment [19], 27%; in [10], 21%. The result in experiment [13] was Active. Also, in [7], the IC50 entry is given as “Not Active”.
Consider `CCOC(=O)N1C[C@H]2CC[C@@H](C1)[C@H]2NCCNC(=O)c1ccccc1`, for which the EC50 in experiment [11] is 92 nM; in experiment [1] it was 18 nM; in experiment [14], “Not Active”; in [9] (read-out: EC50) it was 2800 nM. Further, the Activity in experiment [12] worked out at 53%; in experiment [2], 46%; in experiment [18] it was 45%; in experiment [8] it was 48%; in experiment [10], 31%. Moreover, in experiment [13], the result was Active. Also, the IC50 result in experiment [4] is “Not Active”; in experiment [17], above 10000 nM; in experiment [7] (read-out: IC50), above 10000 nM.
For `CCOC(=O)N1C[C@H]2CC[C@@H](C1)[C@H]2NCCNC(=O)c1cccc(Cl)c1`, the EC50 was 47 nM in [11]; 96 nM in experiment [1]; “Not Active” in experiment [14]; “Not Active” in experiment [3]; 4200 nM in [9] (read-out: EC50). The Activity in experiment [12] amounted to 52%; in [2], 58%; in [8] it was 40%; in experiment [10], 22%. In addition, the IC50 entry in experiment [4] was “Not Active”; in experiment [7] (read-out: IC50), above 10000 nM.
